According to patent US20230127046A1, “G9a INHIBITOR” (RIKEN, priority 2019, published 2023):
pIC50: −log10 of the molar value. Like-named read-outs stand apart in the source and are kept apart here.

Biological target: T1, recombinant human G9a protein (Homo sapiens, UniProt Q96KQ7)
T1 construct: purchased BPS Bioscience Inc. #51001
T1 sequence (Q96KQ7 785-1210 limits assumed): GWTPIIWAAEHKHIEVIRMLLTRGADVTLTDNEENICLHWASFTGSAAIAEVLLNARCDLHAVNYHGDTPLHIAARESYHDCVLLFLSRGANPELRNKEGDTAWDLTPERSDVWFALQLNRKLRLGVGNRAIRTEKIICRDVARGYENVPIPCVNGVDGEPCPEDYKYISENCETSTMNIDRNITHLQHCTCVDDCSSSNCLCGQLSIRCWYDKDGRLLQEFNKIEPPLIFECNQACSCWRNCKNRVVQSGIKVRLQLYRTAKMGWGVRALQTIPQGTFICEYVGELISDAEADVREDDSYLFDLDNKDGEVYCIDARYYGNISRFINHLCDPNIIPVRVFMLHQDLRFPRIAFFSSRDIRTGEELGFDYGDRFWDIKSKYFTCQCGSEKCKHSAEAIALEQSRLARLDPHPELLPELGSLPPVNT
Test: G9a inhibitory activity test (ALPHA)
Assay type: biochemical
Experimental: The G9a inhibitory activity of each compound was evaluated by measuring the enzymatic activity of G9a by amplified luminescence proximity homogeneous assay (ALPHA). First, 7.5 μL of a dilution of recombinant human G9a protein (BPS Bioscience Inc., #51001) diluted to 0.05 to 0.1 nM with a Tris buffer solution (50 mM Tris-HCl [pH 9.0], 50 mM NaCl, 0.01% Tween-20, 1 mM DTT), and 0.5 μL of the test compound were added to each well of a 384-well microplate (AlphaPlate-384 Shallow Well, PerkinElmer, Inc., #6008359), mixed by vortex, and incubated at room temperature for 10 minutes. 500 nM biotinylated histone H3 peptide (1-21) (AnaSpec Inc., #61702) and 150 μM SAM (Sigma-Aldrich Co. LLC, #A7007) were mixed at 1:1 in advance, and 2 μL of the mixture was added to each well, mixed by vortex, and then incubated at room temperature for 1 hour. AlphaLISA anti-H3K9me2 acceptor beads (PerkinElmer, Inc., #AL117C) and AlphaScreen streptavidin donor beads (PerkinElmer, Inc., #6760002B) were each diluted with an epigenetic buffer (PerkinElmer, Inc., AlphaLISA Epigenetics Buffer Kit #AL008C) to a final concentration of […] after addition. These dilutions were added to the reaction solution in the dark and incubated at room temperature for 1 hour in the dark. Then, measurement was performed using the EnSpire Alpha plate reader (PerkinElmer, Inc., Waltham, Mass., USA). The G9a inhibitory activity of the test compound was calculated as a compound concentration necessary for suppressing G9a enzymatic activity by 50% (IC50 value), by determining the percent inhibition of the compound when the value of a control without the addition of the compound was defined as 0% and the value of a control without the addition of the enzyme was defined as 100%.

[1] = biotinylated histone H3 peptide (1-21), SAM, read-out: Inhibitory activity (G9a IC50 value)

SMILES	pIC50 [1]	pIC50 (read-out: Inhibitory activity (G9a IC50))
CCCCC(NC(=O)c1[nH]c2c(c1C)C(=O)CC(C)(C)C2)C(=O)NCc1ccc(N2CCN(C)CC2)cc1 (stereo not drawn) [Example 1-54]	≤ 6.70	
CCCCC(NC(=O)c1[nH]c2c(c1C)C(=O)CC(C)(C)C2)C(=O)Nc1cccc2c1CCN(C)C2 (stereo not drawn) [Example 1-55]	≤ 6.70	
CCCCC(NC(=O)c1[nH]c2c(c1C)C(=O)CC(C)(C)C2)C(=O)NC1CCN(CCCN2CCCC2)CC1 (stereo not drawn) [Example 1-56]	≤ 6.70	
CCCCC(NC(=O)c1[nH]c2c(c1C)C(=O)CC(C)(C)C2)C(=O)Nc1ccc(OCCN(C)C(=O)OC(C)(C)C)nc1 (stereo not drawn) [Example 1-57]	≤ 6.70	
CCOc1ccc(NC(=O)C(CCC2CC2)NC(=O)c2[nH]c3c(c2C)C(=O)CC(C)(C)C3)cn1 (stereo not drawn) [Example 1-58]	≤ 6.70	
Cc1c(C(=O)NC(CCC2CC2)C(=O)N2CCc3c(CN(C)C)cccc32)[nH]c2c1C(=O)CC(C)(C)C2 (stereo not drawn) [Example 1-59]	6.70 to 7.30	
COCc1ccc(NC(=O)C(CCC2CC2)NC(=O)c2[nH]c3c(c2C)C(=O)CC(C)(C)C3)cn1 (stereo not drawn) [Example 1-60]	≤ 6.70	
Cc1ccc(NC(=O)C(CCC2CC2)NC(=O)c2[nH]c3c(c2C)C(=O)CC(C)(C)C3)cc1 (stereo not drawn) [Example 1-61]	6.70 to 7.30	
Cc1c(C(=O)NC(CCC2CC2)C(=O)Nc2cccc(C#N)c2)[nH]c2c1C(=O)CC(C)(C)C2 (stereo not drawn) [Example 1-62]	6.70 to 7.30	
COc1ccc(NC(=O)C(CCC2CC2)NC(=O)c2[nH]c3c(c2C)C(=O)CC(C)(C)C3)cc1 (stereo not drawn) [Example 1-63]	6.70 to 7.30	
Cc1c(C(=O)NC(CCC2CC2)C(=O)N2CCc3cc(C#N)ccc32)[nH]c2c1C(=O)CC(C)(C)C2 (stereo not drawn) [Example 1-64]	≤ 6.70	
Cc1c(C(=O)NC(CCC2CC2)C(=O)Nc2ccc(SC(F)F)cc2)[nH]c2c1C(=O)CC(C)(C)C2 (stereo not drawn) [Example 1-65]	≤ 6.70	
CCc1cc(C#N)ccc1NC(=O)C(CCC1CC1)NC(=O)c1[nH]c2c(c1C)C(=O)CC(C)(C)C2 (stereo not drawn) [Example 1-66]	> 7.30	
Cc1c(C(=O)NC(CCC2CC2)C(=O)NCc2ccc(CN(C)C)cc2)[nH]c2c1C(=O)CC(C)(C)C2 (stereo not drawn) [Example 1-67]	> 7.30	
Cc1c(C(=O)NC(CCC2CC2)C(=O)NC2(c3ccc(C#N)cc3)CC2)[nH]c2c1C(=O)CC(C)(C)C2 (stereo not drawn) [Example 1-69]	≤ 6.70	
Cc1c(C(=O)NC(CCC2CC2)C(=O)Nc2ccc(O)nc2)[nH]c2c1C(=O)CC(C)(C)C2 (stereo not drawn) [Example 1-70]	6.70 to 7.30	
Cc1c(C(=O)NC(CCC2CC2)C(=O)Nc2ccc(OC3COC3)nc2)[nH]c2c1C(=O)CC(C)(C)C2 (stereo not drawn) [Example 1-71]	≤ 6.70	
CSc1ccc(NC(=O)C(CCC2CC2)NC(=O)c2[nH]c3c(c2C)C(=O)CC(C)(C)C3)cn1 (stereo not drawn) [Example 1-72]	≤ 6.70	
Cc1c(C(=O)NC(CCC2CC2)C(=O)Nc2ccncc2)[nH]c2c1C(=O)CC(C)(C)C2 (stereo not drawn) [Example 1-73]	≤ 6.70	
Cc1c(C(=O)NC(CCC2CC2)C(=O)Nc2ccc(N(C)C)nc2)[nH]c2c1C(=O)CC(C)(C)C2 (stereo not drawn) [Example 1-74]	6.70 to 7.30	
CCc1nc(C)ccc1NC(=O)C(CCC1CC1)NC(=O)c1[nH]c2c(c1C)C(=O)CC(C)(C)C2 (stereo not drawn) [Example 1-75]	≤ 6.70	
Cc1c(C(=O)NC(CCC2CC2)C(=O)N2CCc3cc(Br)ccc32)[nH]c2c1C(=O)CC(C)(C)C2 (stereo not drawn) [Example 1-76]	≤ 6.70	
Cc1ccc2c(c1)CCN2C(=O)C(CCC1CC1)NC(=O)c1[nH]c2c(c1C)C(=O)CC(C)(C)C2 (stereo not drawn) [Example 1-77]	≤ 6.70	
Cc1ccc2c(c1)N(C(=O)C(CCC1CC1)NC(=O)c1[nH]c3c(c1C)C(=O)CC(C)(C)C3)CC2 (stereo not drawn) [Example 1-78]	≤ 6.70	
CSc1ccccc1NC(=O)C(CCC1CC1)NC(=O)c1[nH]c2c(c1C)C(=O)CC(C)(C)C2 (stereo not drawn) [Example 1-83]	> 7.30	
CCc1ccccc1NC(=O)C(CCC1CC1)NC(=O)c1[nH]c2c(c1C)C(=O)CC(C)(C)C2 (stereo not drawn) [Example 1-84]	> 7.30	

SMILES	pIC50 [1]	pIC50 (read-out: Inhibitory activity (G9a IC50))
Cc1c(C(=O)NC(CCC2CC2)C(=O)Nc2ccc(OC3CCN(C)CC3)cc2)[nH]c2c1C(=O)CC(C)(C)C2 (stereo not drawn) [Example 1-85]	> 7.30	
Cc1c(C(=O)NC(C(=O)Nc2ccc(OC3CCN(C)CC3)nc2)c2ccccc2)[nH]c2c1C(=O)CC(C)(C)C2 (stereo not drawn) [Example 1-86]	≤ 6.70	
O=C(NC(CCC1CC1)C(=O)Nc1ccc(OC2COC2)nc1)c1ccc(Nc2ccncc2)cc1 (stereo not drawn) [Example 1-88]	> 7.30	
O=C(NC(CCC1CC1)C(=O)Nc1ccc(O)nc1)c1ccc(Nc2ccncc2)cc1 (stereo not drawn) [Example 1-89]	> 7.30	
CCCCC(NC(=O)c1[nH]c2c(c1C)C(=O)CC(C)(C)C2)C(=O)Nc1cccc2[nH]ccc12 (stereo not drawn) [Example 1-90]	≤ 6.70	
CCCCC(NC(=O)c1[nH]c2c(c1C)C(=O)CC(C)(C)C2)C(=O)Nc1ccc2[nH]ncc2c1 (stereo not drawn) [Example 1-91]	≤ 6.70	
CCCCC(NC(=O)c1[nH]c2c(c1C)C(=O)CC(C)(C)C2)C(=O)NCc1cccc(N2CCN(C)CC2)c1 (stereo not drawn) [Example 1-92]	≤ 6.70	
CCCCC(NC(=O)c1[nH]c2c(c1C)C(=O)CC(C)(C)C2)C(=O)Nc1cccc2c1CCCC2 (stereo not drawn) [Example 1-93]	6.70 to 7.30	
CCCCC(NC(=O)c1[nH]c2c(c1C)C(=O)CC(C)(C)C2)C(=O)Nc1cccc2cnccc12 (stereo not drawn) [Example 1-94]	≤ 6.70	
CCCCC(NC(=O)c1[nH]c2c(c1C)C(=O)CC(C)(C)C2)C(=O)Nc1ccc2[nH]c(C)cc2c1 (stereo not drawn) [Example 1-95]	≤ 6.70	
CCCCC(NC(=O)c1[nH]c2c(c1C)C(=O)CC(C)(C)C2)C(=O)Nc1ccc2[nH]ccc2c1 (stereo not drawn) [Example 1-96]	≤ 6.70	
CCCCC(NC(=O)c1[nH]c2c(c1C)C(=O)CC(C)(C)C2)C(=O)Nc1nn(CC)c2ccccc12 (stereo not drawn) [Example 1-97]	≤ 6.70	
CCCCC(NC(=O)c1[nH]c2c(c1C)C(=O)CC(C)(C)C2)C(=O)Nc1ccc(CN2CCCC2)cc1 (stereo not drawn) [Example 1-98]	> 7.30	
CCCCC(NC(=O)c1[nH]c2c(c1C)C(=O)CC(C)(C)C2)C(=O)Nc1cccc(CN2CCOCC2)c1 (stereo not drawn) [Example 1-99]	≤ 6.70	
CCCCC(NC(=O)c1[nH]c2c(c1C)C(=O)CC(C)(C)C2)C(=O)Nc1ccc2[nH]cc(CN(C)C)c2c1 (stereo not drawn) [Example 1-100]	> 7.30	
CCCCC(NC(=O)c1[nH]c2c(c1C)C(=O)CC(C)(C)C2)C(=O)Nc1ccc2cn[nH]c2c1 (stereo not drawn) [Example 1-101]	≤ 6.70	
CCCCC(NC(=O)c1[nH]c2c(c1C)C(=O)CC(C)(C)C2)C(=O)Nc1ccccc1CN1CCN(C)CC1 (stereo not drawn) [Example 1-102]	≤ 6.70	
CCCCC(NC(=O)c1[nH]c2c(c1C)C(=O)CC(C)(C)C2)C(=O)Nc1ccc(N2CCN(C)CC2)cc1 (stereo not drawn) [Example 1-103]	≤ 6.70	
CCCCC(NC(=O)c1[nH]c2c(c1C)C(=O)CC(C)(C)C2)C(=O)N[C@@H]1CCCc2ccccc21 (stereo partly drawn) [Example 1-104]	6.70 to 7.30	
CCCCC(NC(=O)c1[nH]c2c(c1C)C(=O)CC(C)(C)C2)C(=O)Nc1cccc(-c2ccccn2)c1 (stereo not drawn) [Example 1-105]	≤ 6.70	
CCCCC(NC(=O)c1[nH]c2c(c1C)C(=O)CC(C)(C)C2)C(=O)Nc1cccc(C(=O)OC)c1C (stereo not drawn) [Example 1-106]	≤ 6.70	
CCCCC(NC(=O)c1[nH]c2c(c1C)C(=O)CC(C)(C)C2)C(=O)Nc1cccnc1C (stereo not drawn) [Example 1-107]	≤ 6.70	
CCCCC(NC(=O)c1[nH]c2c(c1C)C(=O)CC(C)(C)C2)C(=O)Nc1cccc(CN(CC)CC)c1 (stereo not drawn) [Example 1-108]	> 7.30	
CCCCC(NC(=O)c1[nH]c2c(c1C)C(=O)CC(C)(C)C2)C(=O)Nc1cc(OC)c(OC)c(OC)c1 (stereo not drawn) [Example 1-109]	≤ 6.70	
CCCCC(NC(=O)c1[nH]c2c(c1C)C(=O)CC(C)(C)C2)C(=O)Nc1ccc(N2CCCN(C)CC2)cc1 (stereo not drawn) [Example 1-110]		6.70 to 7.30
